Measurements published in patent US20040037780A1, “Respiratory delivery for gene therapy and lentiviral delivery particle” (priority 2001, published 2004).

Experiments:
nasal airway epithelium [1] = assay: Histological injury after dosing with LPC alone; type: in vivo, mouse; conditions: 1% LPC alone
[2] = tested on: CFTR-mediated chloride secretion; assay: Nasal TPD/ΔPD measurement of CFTR function after LVCFTR dosing; type: in vivo; conditions: homozygote cftr^tmlUnc mice, 1% LPC 1 h prior to PBS (control) instillation; 7 days later
Method: C57B1/6 and cftr^tmlUnc mice (Snouwaert et al., 1992) were used under the approval of both the Women's and Children's Hospital and the University of Adelaide Animal Ethics Committees. C57B1/6 mice (6-7 weeks of age), or cftr^tmlUnc mice (8-20 weeks of age) were anaesthetised intramuscularly with 1 μl/g and 0.7 μl/g body weight respectively of a 3:2 mixture of xylazil (20 mg/ml):ketamine (100 mg/ml) respectively. Body temperature was maintained during anaesthesia with a heat pad, or heat lamp and during the recovery period the mice were placed in a 35° C. air chamber. For dosing, mice were suspended from their dorsal incisors (hindquarters supported) and pre-treatment solutions (4 μl of LPC (Sigma L-4129), or polidocanol (Sigma P-9641), prepared as w/v solutions in PBS) delivered as a bolus into the right nostril using a gel-loading tip (Finnpippette). […] The mice were monitored for respiratory distress and any loss of treatment solution was noted. […]
CFTR gene expression: Mice were anaesthetised, suspended from their dorsal incisors (hindquarters supported) and a subcutaneous needle-agar bridge (as reference electrode) was placed in the abdomen. […] TPD values were measured (blinded) from chart paper recordings, and the ΔPD value was calculated by subtracting the TPD value recorded under basal conditions from the TPD value measured under low-chloride conditions. […]

[3] = tested on: nasal airway surface epithelium; assay: Transepithelial potential difference (TPD) after penetrating agent, damage of epithelia; type: in vivo, mice; conditions: for recovery of TDP function: longer time course, FIG. 11
Excerpt: The method of choice for assessing an appropriate level of damage is by the measurement of transepithelial potential difference (TDP) (Middleton et al., 1994; Knowles et al., 1995; Lee et al., 1999). In general, damage to epithelium with penetrating agents cause at least opening of the tight junctions and this causes the resident negative TPD on the airway surface to go toward zero. If there is exfoliation (that is substantial damage) then the TPD goes to zero quickly and takes several days to return to normal because the epithelia cells have been stripped off and have to regenerate.
Measurement of TPD was performed under zero-chloride perfusion to give a larger baseline TPD value from which to measure change. Under these conditions the values are typically around −20 mV compared to about −5 mV if normal perfusion saline is used. Mice are anaesthetised, TPD cannula is inserted, then the detergent dose is instilled in the same nostril, the effect is then followed in this anterior part of the nose. The methods used for measuring TDP are largely as described in Parsons et al., 1998. For method for use in human see Middleton et al., 1994 and Knowles et al., 1995.
The dosage of detergent used is 4 μl of PBS, PDOC of LPC and is in line with methods used in the above examples. The solutions of detergent use are 0.01, 0.1 and 1.0%. The TDP value was determined 5 minutes after administration of the detergent. The values are presented graphically in FIG. 8. […] A score of 100% represents the pretest TDP value. […] A TDP value of less than about 60% is though to be preferable.
The same doses of LPC were used as for experiment 1 but TDP was measured at 2, 5 and 10 minutes after administration. The data are presented graphically in FIG. 9. […] Thus should 0.01% LPC be used for treatment of the lung then lentivirus should be delivered within 10 minutes.
This uses that same doses of PDOC as in experiment 1 and as in experiment 2 TDP was measured at 2, 5 and 10 minutes after administration. The data from this experiment are presented graphically in FIG. 10.
TDP was measured over a longer time course using PDOC as the penetrating agent. The doses used in this experiment were (per mouse) 10 μl of 1.0% PDOC, 4 μl of 1.0% PDOC and 4 μl of 0.1% PDOC. […] A recovery of TDP function within about 1 day is considered to be transient.

[4] = tested on: freshly-excised mouse nasal airway epithelium; conditions: unpublished data
nasal airway epithelium [5] = assay: LV-mediated LacZ gene transfer into mouse nasal airway (X-gal, count of LacZ positive cells); type: in vivo, C57B1/6 mice; conditions: for LacZ positive cells ± SEM: 3 standard cross-sections, n=3
A549 = assay: Effect of detergent on viral gene transfer in vitro, non-polarised cells; type: cell-based; conditions: AdV5CMVLacZ vector added 10, 30 and 60 mins following polidocanol treatment
Method: (§1) The effect of detergents (polidocanol and lysophospatidylcholine) on the level of viral gene transfer were firstly evaluated in vitro.
(§2) Initial experiments made use of the AdV5CMVLacZ vector (a generous gift from Dr. R. C. Boucher). […] This dose of polidocanol was assessed on polarised cells (MDCK) and also non-polarised cells (A549). The AdV vector was added at 10, 30 and 60 mins following treatment. […] When the experiments were repeated using the LV vector we found the same effect.

MDCK = assay: Effect of detergent on viral gene transfer in vitro, polarised cells; type: cell-based; conditions: AdV5CMVLacZ vector added 10, 30 and 60 mins following polidocanol treatment, P<0.05
Method: as §1, §2

nasal airway epithelium [6] = assay: Adenoviral (AdlLacZ) LacZ gene transfer into mouse nasal airway after detergent pre-treatment; type: in vivo, mice; conditions: 4 μl detergent (SDS 0.25%, ZWIT 0.14%, DEOXY 0.17%) 1 h before AdlLacZ 1×10^9 pfu; 3 days; FIG. 7
Method: The detergents tested were Sodium n-dodecyl sulfate (SDS), (an anionic detergent) at 0.25%, Zwittergent 3-14: N-Tetradecylsulfobetaine (ZWIT) (a zwitterionic detergent) at 0.14%, Cetyltrimethylammonium bromide (CTAB) (an ionic detergent) at 0.15%, Deoxycholic Acid (DEOXY) (an ionic detergent) at 0.17%, with phosphate buffered saline as a control.
Detergents were made up fresh to nominated concentrations. A single 4 μl dose was used per mouse (all were approximately 20 gm body weight). An Adenoviral vector (AdlLacZ) dose of 1×10^9 pfu in 20 μl. Mice were anaesthetised with Xylamine/Ketamine i.m.; then suspended vertically (hanging on dorsal incisor teeth). The detergent dose was instilled into the nostril opening in one bolus via a micropipettor.
The mouse was set aside for one hour; re-anaesthetised as needed, 1 hour later 20 μl of viral vector was instilled into the same nostril. The mouse was allowed to recover and returned to caging. Three days later the mice were killed with CO2 excess, head removed and the nasal airways were flushed with fixative. These were taken through standard “X-gal” processing to reveal blue stained cells that represent LacZ gene transfer. Cells were processing to wax sections and stained with Safranin-O or haemotoxylin/oesin. Stained cells present along the perimeter of 3 standard cross-sections in the treated nasal airway were counted. […]

[7] = 0.1% pre-treatment (4 μl) 1 h before 20 μl LVLacZa (6×10^4 NIH3T3-TU), 7 days
[8] = 1% pre-treatment (4 μl), then PBS instead of vector, 7 days

lysophosphatidylcholine [LPC]
histological injury observed immediately after dosing (nasal airway epithelium [1]): limited areas of deciliation or exfoliation found anteriorly close the dosed site | ΔPD [2]: +8±3.2 mV | TPD relative to pretest TPD ([3]; 4 μl of 0.01% LPC, after 10 minutes, FIG. 9): not significantly different to pretest TPD | effect on cilial beat [4]: dose-dependant reversibility of reduction in cilial beat | LacZ positive cells ± SEM (nasal airway epithelium [5]; [7]): 4.3 ± 0.7 | increase in the level of LV-mediated transduction compared to pre-treatment with 1% polidocanol (nasal airway epithelium [5]; 1% LPC pre-treatment, LVLacZa, 7 days): 4 fold | LacZ positive cells ± SEM (nasal airway epithelium [5]; [8]): 0.0 ± 0.0

polyoxyethylene 9-lauryl ether [PDOC]
level of gene transfer between vector instillation times (A549): no apparent difference | effect on TDP value ([3]; 4 μl of 0.01, 0.1 and 1.0% solutions, 5 minutes after administration, FIG. 8): greater effect on TDP value than LPC | recovery of TDP function ([3]; 4 μl of 0.1% PDOC): rapidly recovers | recovery of TDP function ([3]; 10 μl of 1.0% PDOC and 4 μl of 1.0% PDOC (first two doses)): extended | LacZ positive cells ± SEM (nasal airway epithelium [5]; [7]): 2.7 ± 0.3 | LacZ positive cells ± SEM (nasal airway epithelium [5]; 1% pre-treatment (4 μl) 1 h before 20 μl LVLacZa (6×10^4 NIH3T3-TU), polybrene-free, 7 days): 5.3 ± 1.3 | LacZ positive cells ± SEM (nasal airway epithelium [5]; [8]): 0.0 ± 0.0 | gene transfer when vector added one hour after treatment compared to shorter time points (MDCK): significantly improved

CCCCCCCCCCCCOS(=O)(=O)[O-].[Na+] [SDS, Sodium n-dodecyl sulfate]
numbers of transductants over the control PBS, respiratory cells (nasal airway epithelium [6]): considerable increase in numbers of transductants

polybrene
number of LacZ positive cells (nasal airway epithelium [5]; 1% LPC pre-treatment, LVLacZa vector preparation containing 4 μg/ml polybrene, 7 days): 5.0±1.0 | decrease in the number of LacZ positive cells on inclusion of polybrene in the LVLacZa preparation (nasal airway epithelium [5]; 1% LPC pre-treatment, vs polybrene-free LVLacZa, P=0.002): 4 fold

CCCCCCCCCCCCCC[N+](C)(C)CCCS(=O)(=O)[O-] [Zwit, N-Tetradecylsulfobetaine]
numbers of transductants over the control PBS, respiratory cells (nasal airway epithelium [6]): considerable increase in numbers of transductants
